From patent US20080176932A1, “Pharmaceutical Compositions Containing Baicalein And Baicalin With Synergistic Effect In Tumor Treatment” (priority 2005, published 2008)
Where two headings read alike, the source gives them in different places.

Legend:
[1] = tested on: Human leukemia cell line HL60; assay: MTT growth inhibition, baicalein and baicalin single or combination; type: cell-based
Excerpt: Human leukemia cell line HL60—Table 8.

[2] = tested on: Murine melanoma cell line B 16; assay: Solid tumor transplant model, baicalein and baicalin; type: in vivo; details: B16 mice, B 30 mg/kg i.p., day 1-10
Method: (§1) C57BL/6 female mice (weight approximately 20 g) were used in this study. Murine melanoma cell line B 16 cells, 2×10^6 tumor cells were implanted s.c. into the armpit of each mice after two passenges in vitro cultured. On the next day after implantation, mice were randomly grouped at 10 per group and received 0.1 ml/10 g weight of the drugs. […] The number of mice of each group was 10. Mice were weighed before and post the treatment. Animals were killed on day 15, and the tumors were removed and weighted.

[3] = tested on: Human prostate cancer cell line PC3; assay: MTT growth inhibition, baicalein and scutellarin single or combination; type: cell-based
Method: (§2) Cells were seeded onto 96-well plate at 5×10^3 cells/well, and grown in culture medium containing 10% fetal bovine serum (FBS). […] The viable cell growth was determined by MTT assay after 72-h continuous exposure.
(§3) A CI below 1 is an indication of synergy, while a CI equal to 1 represents addition, and a CI above 1 indicates antagonism.

[4] = tested on: Human esophagus cancer cell line TE2; assay: as above; type: cell-based
Method: as §2, §3

[5] = tested on: Human breast cancer cell line MCF-7; assay: as above; type: cell-based
Method: as §2, §3

[6] = tested on: Human colon cancer cell line HCT116; assay: MTT growth inhibition, baicalein and baicalin single or combination; type: cell-based
Excerpt: Human colon cancer cell line HCT116—Table 2;

[7] = tested on: Human esophagus cancer cell line TE2
[8] = tested on: human liver cancer cell line HepG2; assay: MTT growth inhibition, baicalein and scutellarin single or combination; type: cell-based
[9] = tested on: L1210 cells; type: in vivo; details: B 30 mg/kg i.p., day 1-10
Method: (§4) L1210 cells on the growth phase were injected at 1×10^5 cells via I.P. into BDF1 female mice (weight approximately 20 g). The next day of implantation, mice were grouped, and received an injection of 0.1 ml/10 g weight of the drug. […] The number of mice of each group was 10. Mice were weighed before and after the treatment. Survival time of each mouse was recorded. The results of changes in increasing of life span of mice were used in assessment of response. The increase of life span was determined as; increase of life span rate=(median survival time of treated animals/median survival time of control animals−1)×100%, the data were analyzed by t-test.

[10] = tested on: Human leukemia cell line HL60; assay: MTT growth inhibition, baicalein and scutellarin single or combination; type: cell-based
[11] = tested on: Human breast cancer cell line MCF-7
[12] = tested on: L1210 cells; type: in vivo; details: B 30 mg/kg i.p., day 1-10; remark: listed apart in the source
Method: as §4

[13] = tested on: Human colon cancer cell line HCT116; assay: MTT growth inhibition, baicalein and scutellarin single or combination; type: cell-based
[14] = tested on: Human gastric cancer cell line MKN28; assay: as above; type: cell-based
[15] = tested on: Human gastric cancer cell line MKN28; assay: MTT growth inhibition, baicalein and baicalin single or combination; type: cell-based
Excerpt: Human gastric cancer cell line MKN28—Table 4;

[16] = tested on: Murine melanoma cell line B 16; assay: Solid tumor transplant model, baicalein and scutellarin; type: in vivo, C57BL/6 female mice; details: B16 mice, B 30 mg/kg i.p., day 1-10
Method: as §1, with “0.1ml/10” for “0.1 ml/10”

[17] = tested on: Human hung cancer cell line A549; assay: MTT growth inhibition, baicalein and scutellarin single or combination; type: cell-based
[18] = tested on: Human hung cancer cell line A549; assay: MTT growth inhibition, baicalein and baicalin single or combination; type: cell-based
Excerpt: Human hung cancer cell line A549—Table 3;

[19] = tested on: human liver cancer cell line HepG2; assay: as above; type: cell-based
Excerpt: The results of experiments with human liver cancer cell line HepG2 are illustrated in Table 1;

[20] = tested on: Human prostate cancer cell line PC3

O=c1cc(-c2ccccc2)oc2cc(O)c(O)c(O)c12 [B, baicalein]
Inhibition of cell growth (%) ([1]; single dose 2.5 μm): 6.5 ± 2%
Inhibition of cell growth (%) ([1]; single dose 5 μm): 21.8 ± 3%
Inhibition of cell growth (%) ([1]; single dose 10 μm): 41.32 ± 2.7%
Inhibition of cell growth (%) ([1]; single dose 20 μm): 67.6 ± 3.2%
Inhibition of cell growth (%) ([1]; single dose 40 μm): 86.77 ± 3.3%
Final Tumor WT. (g) Mean ± SD ([2]; day 15): 1.72 ± 0.09 g
Tumor Growth Inhibition % ([2]; day 15): 21.1%
Weight Change % [2]: <5%
Inhibition of cell growth (%) ([3]; single dose 2.5 μm): 7.2 ± 5%
Inhibition of cell growth (%) ([3]; single dose 5 μm): 22.8 ± 6%
Inhibition of cell growth (%) ([3]; single dose 10 μm): 50.9 ± 5%
Inhibition of cell growth (%) ([3]; single dose 20 μm): 69.9 ± 5%
Inhibition of cell growth (%) ([3]; single dose 40 μm): 92.9 ± 7%
Inhibition of cell growth (%) ([4]; single dose 2.5 μm): 5 ± 2%
Inhibition of cell growth (%) ([4]; single dose 5 μm): 16.8 ± 1.2%
Inhibition of cell growth (%) ([4]; single dose 10 μm): 38.4 ± 2.1%
Inhibition of cell growth (%) ([4]; single dose 20 μm): 66.85 ± 2%
Inhibition of cell growth (%) ([4]; single dose 40 μm): 83.1 ± 2.1%
Inhibition of cell growth (%) ([5]; single dose 2.5 μm): 0.8 ± 2%
Inhibition of cell growth (%) ([5]; single dose 5 μm): 13.02 ± 2.5%
Inhibition of cell growth (%) ([5]; single dose 10 μm): 51.02 ± 2.2%
Inhibition of cell growth (%) ([5]; single dose 20 μm): 64.35 ± 2.2%
Inhibition of cell growth (%) ([5]; single dose 40 μm): 93 ± 2.5%
Inhibition of cell growth (%) ([6]; single dose 2.5 μm): 5.8 ± 2%
Inhibition of cell growth (%) ([6]; single dose 5 μm): 20.5 ± 3%
Inhibition of cell growth (%) ([6]; single dose 10 μm): 29.2 ± 3%
Inhibition of cell growth (%) ([6]; single dose 20 μm): 41 ± 2.7%
Inhibition of cell growth (%) ([6]; single dose 40 μm): 89.15 ± 3%
Inhibition of cell growth (%) ([7]; single dose 2.5 μm): 5.5 ± 1%
Inhibition of cell growth (%) ([7]; single dose 5 μm): 17.2 ± 2.8%
Inhibition of cell growth (%) ([7]; single dose 10 μm): 28 ± 2%
Inhibition of cell growth (%) ([7]; single dose 20 μm): 57.9 ± 2.1%
Inhibition of cell growth (%) ([7]; single dose 40 μm): 85.2 ± 2.3%
Inhibition of cell growth (%) ([8]; single dose 2.5 μm): 7.35 ± 2.2%
Inhibition of cell growth (%) ([8]; single dose 5 μm): 32.7 ± 2.3%
Inhibition of cell growth (%) ([8]; single dose 10 μm): 49.8 ± 2.1%
Inhibition of cell growth (%) ([8]; single dose 20 μm): 58.5 ± 1.2%
Inhibition of cell growth (%) ([8]; single dose 40 μm): 90.18 ± 2.5%
Number of mice Through surviving 15 days/total number [9]: 10/10
ILS(%) increase of life span ([9]; L1210 mice): 31.6%
Inhibition of cell growth (%) ([10]; single dose 2.5 μm): 7.5 ± 2.7%
Inhibition of cell growth (%) ([10]; single dose 5 μm): 22.7 ± 2.2%
Inhibition of cell growth (%) ([10]; single dose 10 μm): 41.8 ± 2.7%
Inhibition of cell growth (%) ([10]; single dose 20 μm): 60.6 ± 3.2%
Inhibition of cell growth (%) ([10]; single dose 40 μm): 89.18 ± 2.1%
Inhibition of cell growth (%) ([11]; single dose 2.5 μm): 7.2 ± 2%
Inhibition of cell growth (%) ([11]; single dose 5 μm): 27.55 ± 2%
Inhibition of cell growth (%) ([11]; single dose 10 μm): 51 ± 3%
Inhibition of cell growth (%) ([11]; single dose 20 μm): 71.77 ± 2.5%
Inhibition of cell growth (%) ([11]; single dose 40 μm): 90.5 ± 2.5%
Number of mice Surviving through 15 days/total number [12]: 10/10
ILS(%) increase of life span ([12]; L1210 mice): 31.6%
Inhibition of cell growth (%) ([13]; single dose 2.5 μm): 5.8 ± 2%
Inhibition of cell growth (%) ([13]; single dose 5 μm): 10.5 ± 2.3%
Inhibition of cell growth (%) ([13]; single dose 10 μm): 29.2 ± 2.7%
Inhibition of cell growth (%) ([13]; single dose 20 μm): 47 ± 3.1%
Inhibition of cell growth (%) ([13]; single dose 40 μm): 91.15 ± 2.5%
Inhibition of cell growth (%) ([14]; single dose 2.5 μm): 16.5 ± 1.1%
Inhibition of cell growth (%) ([14]; single dose 5 μm): 27.7 ± 2.1%
Inhibition of cell growth (%) ([14]; single dose 10 μm): 42.8 ± 2.3%
Inhibition of cell growth (%) ([14]; single dose 20 μm): 65.6 ± 3%
Inhibition of cell growth (%) ([14]; single dose 40 μm): 80.21 ± 2.5%
Inhibition of cell growth (%) ([15]; single dose 2.5 μm): 7.7 ± 3%
Inhibition of cell growth (%) ([15]; single dose 5 μm): 37.11 ± 2.9%
Inhibition of cell growth (%) ([15]; single dose 10 μm): 53 ± 3.2%
Inhibition of cell growth (%) ([15]; single dose 20 μm): 58 ± 2%
Inhibition of cell growth (%) ([15]; single dose 40 μm): 77 ± 3%
Final Tumor WT. (g) Mean ± SD ([16]; day 15): 1.72 ± 0.09 g
Tumor Growth Inhibition % ([16]; day 15): 21.1%
Number of mice through 15 days/total number [16]: 10/10
Weight Change % [16]: <5%
Inhibition of cell growth (%) ([17]; single dose 2.5 μm): 10.55 ± 1.2%
Inhibition of cell growth (%) ([17]; single dose 5 μm): 17.19 ± 2.2%
Inhibition of cell growth (%) ([17]; single dose 10 μm): 40.8 ± 3.2%
Inhibition of cell growth (%) ([17]; single dose 20 μm): 62.5 ± 2%
Inhibition of cell growth (%) ([17]; single dose 40 μm): 90.18 ± 2.1%
Inhibition of cell growth (%) ([18]; single dose 2.5 μm): 13.5 ± 4%
Inhibition of cell growth (%) ([18]; single dose 5 μm): 17.18 ± 3%
Inhibition of cell growth (%) ([18]; single dose 10 μm): 39.2 ± 2%
Inhibition of cell growth (%) ([18]; single dose 20 μm): 63.85 ± 3.2%
Inhibition of cell growth (%) ([18]; single dose 40 μm): 96.41 ± 2%
Inhibition of cell growth (%) ([19]; single dose 2.5 μm): 7.4 ± 2%
Inhibition of cell growth (%) ([19]; single dose 5 μm): 34.93 ± 3%
Inhibition of cell growth (%) ([19]; single dose 10 μm): 50.2 ± 3%
Inhibition of cell growth (%) ([19]; single dose 20 μm): 58.5 ± 2.5%
Inhibition of cell growth (%) ([19]; single dose 40 μm): 89.18 ± 2%
Inhibition of cell growth (%) ([20]; single dose 2.5 μm): 7.2 ± 5%
Inhibition of cell growth (%) ([20]; single dose 5 μm): 22.8 ± 6%
Inhibition of cell growth (%) ([20]; single dose 10 μm): 50.9 ± 5%
Inhibition of cell growth (%) ([20]; single dose 20 μm): 69.9 ± 5%
Inhibition of cell growth (%) ([20]; single dose 40 μm): 92.9 ± 7%
